In assay [1] the test system is 786-O (renal cell carcinoma) cells. Put plainly: Cell proliferation (Alamar Blue) assay, 786-O cells. The class given is cell-based. The conditions noted are these: Homo sapiens, 786-0, 786-O cells, Alamar Blue. The method, then: (§1) Cell viability assay was performed to assess the potency of the compounds in human cancer cell lines 786-0 (renal cell carcinoma) and SJSA-1 (osteosarcoma). Additional cell lines, such as pancreatic cancer cell lines (Panc 02.13, BxPC-3, Panc 12, Panc 02.03, Panc 6.03, PSN-1, HPAC, and Capan-1), prostate cancer cell lines (PC-3, DU145, […], NCI-H660, 1PH1 LNCaP, BM-1604, and MDA PCa 2b), etc., can be tested in a similar method.
(§2) Cells (SJSA-1, 786-0 and A431) were seeded (5000 cells/100 μL/well) in 96-well tissue culture plate and incubated at 37° C./500 CO2 for 16-24 hours. The cells were then treated with compounds (25 μL of 5×). The compound concentrations were 10-0.0005 μM prepared in 3-fold serial dilutions with final DMSO concentration of 1%. The plates were then incubated for 24 h at 37° C./[…] in a moist environment. Then Alamar Blue™ reagent (final concentration 1×-12.5 μL) was added to each well and incubated for 1.5 hours at 37° C./500 CO2. The plates were read on fluorescence reader at 540 nm excitation and 590 nm emission wavelengths. The IC50 values were subsequently determined using a sigmoidal dose-response curve (variable slope) in GraphPad Prism® 5 software. Tables A-3 and B-11 show cell proliferation data for exemplary compounds as described herein.
In general terms: Resazurin is reduced to fluorescent resorufin, in cell work by metabolically active cells.

Another assay has as its system A431 cells. The assay is described as follows: Cell proliferation (Alamar Blue) assay, A431 cells. In kind it is cell-based. The conditions noted are these: Homo sapiens, A-431, A431 cells, Alamar Blue. As to the method: as §1, §2
Assay [2] deals with 786-O cells + Ferrastatin-1. Put plainly: GPX4 inhibition assay: cell proliferation (Alamar Blue) in 786-O cells with ferrostatin rescue. In kind it is cell-based, human. As to the method:
as §2
Studies have shown that lipophilic antioxidants, such as ferrostatin, can rescue cells from GPX4 inhibition-induced ferroptosis. For instance, mesenchymal state GPX4-knockout cells can survive in the presence of ferrostatin, however, when the supply of ferrostatin is terminated, these cells undergo ferroptosis (see, e.g., Viswanathan et al., Nature 547:453-7, 2017). […] Accordingly, the ability of a molecule to induce ferroptotic cancer cell death, and that such ability is admonished by the addition of ferrostatin, is clear indication that the molecule is an GPX4 inhibitor. Cell proliferation data for exemplary compounds with and without ferrostatin can be seen in Table A-3.

Setting [3] is: 24 h compound treatment, read-out: IC50 (μM) 786-O.
Setting [4] is: 24 h compound treatment, read-out: IC50 (μM) A431.
The mark [5] stands for this setting: 24 h compound incubation, read-out: Cell proliferation IC50 (μM) 786-O.
[6] abbreviates: 786-O cells with Ferrastatin-1 (rescue), read-out: Cell proliferation IC50 (μM) 786-O + Ferrastatin-1.
The mark [7] stands for this setting: 24 h compound incubation, read-out: Cell proliferation IC50 (μM) A431.
[8] abbreviates: 786-O cells in presence of Ferrastatin-1 (rescue), read-out: IC50 (μM) 786-O + Ferrastatin-1.

Read-outs that look alike come from different tables or passages of the source.

For the compound `C#CC(=O)N1[C@@H](COCC)Cc2cc(OC)ccc2[C@@H]1c1ccc(C#N)cc1` [Compound B-39], the IC50 in assay [1] (setting [3]) was 0.195 µM; in the assay on A431 cells (setting [4]), more than 10 µM.

As to `CCC[C@H]1Cc2cc(OC)ccc2[C@@H](c2ccc(NC34CC5CC(CC(C5)C3)C4)cc2)N1C(=O)C#C[Si](C)(C)C` [Compound A-4], the IC50 is 0.067 µM in assay [1] (setting [5]), more than 1 µM in assay [2] (setting [6]) and more than 1 µM in the assay on A431 cells (setting [7]). For the compound `C#CC(=O)N1[C@@H](CCCC)Cc2cc(CCCO)ccc2[C@@H]1c1ccc(NC23CC4CC(CC(C4)C2)C3)cc1` [Compound B-56], the IC50 was determined as 0.012 µM in assay [1] (setting [3]), 1.27 µM in assay [2] (setting [8]) and 0.117 µM with A431 cells (setting [4]). The matching figures for `C#CC(=O)N1[C@@H](CCCC)Cc2cc(OC)ccc2[C@@H]1c1cccc(NC23CC4CC(CC(C4)C2)C3)c1` [Compound B-74]: 0.025 µM, 1.91 µM and 3.06 µM. `C#CC(=O)N1[C@@H](CCCC)Cc2cc(OC)ccc2[C@@H]1c1ccc(C#N)cc1` [Compound B-31]: the IC50 in assay [1] (setting [3]) worked out at 0.016 µM; in the assay with A431 cells (setting [4]), 3.67 µM.

With `CCCC[C@H]1Cc2cc(OC)ccc2[C@H](c2ccc(NC34CC5CC(CC(C5)C3)C4)cc2)N1C(=O)C#C[Si](C)(C)CC` [Compound A-33, 1-((1S,3S)-1-(4-(((1s,3R)-adamantan-1-yl)amino)phenyl)-3-butyl-6-methoxy-3,4-dihydroisoquinolin-2(1H)-yl)-3-(ethyldimethylsilyl)prop-2-yn-1-one], the IC50 in assay [1] (setting [5]) was 0.023 µM; in assay [2] (setting [6]), more than 1 µM.

For `C#CC(=O)N1[C@@H](CCCC)Cc2cc(F)ccc2[C@@H]1c1ccc(NC23CC4CC(CC(C4)C2)C3)cc1` [Compound B-40], the IC50 in assay [1] (setting [3]) was found to be 0.006 µM; in the assay with A431 cells (setting [4]), 4.52 µM. The matching figures for `C#CC(=O)N1[C@@H](CC2CC2)Cc2cc(OC)ccc2[C@@H]1c1ccc(C#N)cc1` [Compound B-37]: 0.049 µM and more than 10 µM. Regarding `C#CC(=O)N1[C@@H](c2ccc(NC34CC5CC(CC(C5)C3)C4)cc2)c2ccc(OC)cc2C[C@@H]1C1CCC1` [Compound B-4], the IC50 in assay [1] (setting [3]) is 0.016 µM. `C#CC(=O)N1[C@H](c2ccc(NC34CC5CC(CC(C5)C3)C4)cc2)c2ccc(OC)cc2C[C@@H]1C1CCC1` [Compound B-51]: the IC50 turned out to be 0.072 µM in assay [1] (setting [3]) and 4.9 µM in the assay with A431 cells (setting [4]). Consider `C#CC(=O)N1[C@@H](COC)Cc2cc(OC)ccc2[C@H]1c1ccc(NC23CC4CC(CC(C4)C2)C3)cc1` [Compound B-45], for which the IC50 in assay [1] (setting [3]) stood at 0.047 µM. As for `C#CC(=O)N1[C@@H](CCCC)Cc2cc(OC)ccc2[C@@H]1c1ccc(N2CCC(F)(F)C2)cc1` [Compound B-14], the IC50 in assay [1] (setting [3]) is 0.06 µM; in the assay with A431 cells (setting [4]), more than 1 µM. In the same order, the values of `C#CC(=O)N1[C@@H](CCCC)Cc2cc(OC)ccc2[C@@H]1c1ccccc1` [Compound B-29] are 0.037 µM and 8.73 µM. In the case of `CCCC[C@H]1Cc2cc(OC)ccc2[C@H](c2ccc(NC34CC5CC(CC(C5)C3)C4)c(Cl)c2)N1C(=O)C#C[Si](C)(C)C` [Compound A-46], the IC50 is 0.31 µM in assay [1] (setting [5]) and not below 10 µM in the assay on A431 cells (setting [7]). As to `C#CC(=O)N1CCc2cc(OC)ccc2C1c1ccccc1` (stereo not shown) [Compound B-24], the IC50 in assay [1] (setting [3]) worked out at 0.198 µM; with A431 cells (setting [4]), 3.5 µM.

In the case of `C#CC(=O)N1[C@@H](CCC)Cc2cc(OC)ccc2[C@@H]1c1ccc(NC23CC4CC(CC(C4)C2)C3)cc1` [Compound B-43], the IC50 was 0.006 µM in assay [1] (setting [3]) and 4.1 µM with A431 cells (setting [4]). In the same order, the values of `C#CC(=O)N1[C@@H](c2ccc(C#N)cc2)c2ccc(OC)cc2C[C@@H]1C` [Compound B-32, 4-[(1S,3S)-6-methoxy-3-methyl-2-(prop-2-ynoyl)-1,2,3,4-tetrahydroisoquinolin-1-yl]benzonitrile] are 0.42 µM and 3.5 µM.

Regarding `COc1ccc2c(c1)C[C@H](C1CCC1)N(C(=O)C#C[Si](C)(C)C)[C@H]2c1ccc(NC23CC4CC(CC(C4)C2)C3)cc1` [Compound A-7, 1-((1S,3R)-1-(4-(((3R,5R,7R)-adamantan-1-yl)amino)phenyl)-3-cyclobutyl-6-methoxy-3,4-dihydroisoquinolin-2(1H)-yl)-3-(trimethylsilyl)prop-2-yn-1-one], the IC50 in assay [1] (setting [5]) is 0.021 µM; in assay [2] (setting [6]) it was more than 1 µM.

Turning to `CCCC[C@H]1Cc2cc(OC)ccc2[C@H](c2ccc(NC3CCC3)cc2)N1C(=O)C#C[Si](C)(C)C` [Compound A-25, 1-((1S,3S)-3-butyl-1-(4-(cyclobutylamino)phenyl)-6-methoxy-3,4-dihydroisoquinolin-2(1H)-yl)-3-(trimethylsilyl)prop-2-yn-1-one], the IC50 in assay [1] (setting [5]) was 0.171 µM; in assay [2] (setting [6]) it was more than 1 µM. Regarding `C#CC(=O)N1[C@@H](COC)Cc2cc(OC)ccc2[C@@H]1c1ccc(NC23CC4CC(CC(C4)C2)C3)cc1` [Compound B-41], the IC50 in assay [1] (setting [3]) came to 0.0035 µM; in the assay with A431 cells (setting [4]), 3.88 µM. As to `C#CC(=O)N1[C@@H](CC2CC2)Cc2cc(OC)ccc2[C@@H]1c1ccc(NC23CC4CC(CC(C4)C2)C3)cc1` [Compound B-50], the IC50 in assay [1] (setting [3]) was 0.01 µM. Consider `C#CC(=O)N1CCc2cc(OC)ccc2C1c1ccc(C#N)cc1` (stereo not shown) [Compound B-28], for which the IC50 is 0.18 µM in assay [1] (setting [3]) and 7.5 µM in the assay on A431 cells (setting [4]).

On to `CCC[C@H]1Cc2cc(OC)ccc2[C@H](c2ccc(NC34CC5CC(CC(C5)C3)C4)cc2)N1C(=O)C#C[Si](C)(C)C` [Compound A-3], for which the IC50 is 0.029 µM in assay [1] (setting [5]) and more than 1 µM in assay [2] (setting [6]). Consider `C#CC(=O)N1[C@@H](CCC)Cc2cc(OC)ccc2[C@H]1c1ccc(NC23CC4CC(CC(C4)C2)C3)cc1` [Compound B-44], for which the IC50 in assay [1] (setting [3]) was 0.054 µM; in the assay on A431 cells (setting [4]), more than 1 µM. Take `CCCC[C@H]1Cc2cc(OC)ccc2[C@H](c2ccc(NC34CC5CC(CC(C5)C3)C4)c(C#N)c2)N1C(=O)C#C[Si](C)(C)C` [Compound A-15, 2-(((3R,5R,7R)-adamantan-1-yl)amino)-5-((1S,3S)-3-butyl-6-methoxy-2-(3-(trimethylsilyl)propioloyl)-1,2,3,4-tetrahydroisoquinolin-1-yl)benzonitrile]: the values for the IC50 in assay [1] (setting [5]) and in assay [2] (setting [6]) were 0.021 µM and more than 1 µM, respectively. On to `C#CC(=O)N1[C@@H](CCCC)Cc2cc(OC)ccc2[C@@H]1C12CC(F)(C1)C2` [Compound B-5], for which the IC50 in assay [1] (setting [3]) is 0.145 µM; in the assay on A431 cells (setting [4]), more than 1 µM. Regarding `C#CC(=O)N1CCc2cc(OC)ccc2C1c1ccc(F)cc1` (stereo not shown) [Compound B-26], the IC50 in assay [1] (setting [3]) was 0.395 µM; in the assay with A431 cells (setting [4]), more than 10 µM. The matching figures for `C#CC(=O)N1[C@@H](CCCC)Cc2cc(OC)ccc2[C@H]1c1ccc(NC23CC4CC(CC(C4)C2)C3)cc1` [Compound B-2]: 0.192 µM and more than 1 µM. Regarding `C#CC(=O)N1[C@@H](CCCC)Cc2cc(OC)ccc2[C@@H]1c1ccc(NC23CC4CC(CC(C4)C2)C3)c(C#N)c1` [Compound B-8], the IC50 in assay [1] (setting [3]) amounted to 0.021 µM.

`C#CC(=O)N1[C@@H](CCCC)Cc2cc(OC)ccc2[C@H]1C12CC(F)(C1)C2` [Compound B-6]: the IC50 in assay [1] (setting [3]) was 0.067 µM; with A431 cells (setting [4]) it was more than 1 µM.

`C#CC(=O)N1[C@@H](CCCC)Cc2ccc(OC)cc2[C@@H]1c1ccc(NC23CC4CC(CC(C4)C2)C3)cc1` [Compound B-42, 1-((1S,3S)-1-(4-(((3R,5R,7R)-adamantan-1-yl)amino)phenyl)-3-butyl-7-methoxy-3,4-dihydroisoquinolin-2(1H)-yl)prop-2-yn-1-one]: the IC50 in assay [1] (setting [3]) came out at 0.0145 µM; in the assay with A431 cells (setting [4]), 6.58 µM.

The values are drawn from patent US20240092739A1, “COMPOUNDS AND METHODS OF USE” (Ferro Therapeutics, Inc, priority 2020, published 2024).
